Patent US8624036B2, “2-aryl-propionic acids and derivatives and pharmaceutical compositions containing them” (Dompe S.p.A., priority 2008, dated 2014)
Marks after values point to notes of the source that are not given here.

Experiments:
[1] = tested on: GRO-α induced chemotaxis of PMNs; assay: GRO-α (CXCL1) induced chemotaxis of human PMNs; assay type: cell-based; conditions: compound at 10^−8 M; for inhibition at 0.01 µM: Homo sapiens
Method: (§1) The compounds of the invention of formula (I) were evaluated in vitro for their ability to inhibit chemotaxis of polymorphonucleate leukocytes (hereinafter referred to as PMNs) and monocytes induced by the fractions of CXCL8 and GRO-α. For this purpose, in order to isolate the PMNs from heparinized human blood, taken from healthy adult volunteers, mononucleates were removed by means of sedimentation on dextran (W. J. Ming et al., J. Immunol., 138, 1469, 1987). The cell vitality was calculated by exclusion with Trypan blue, whilst the ratio of the circulating polymorphonucleates was estimated on the cytocentrifugate after staining with Diff Quick.
GRO-α induced chemotaxis inhibition was evaluated in an analogous assay.
(§2) In the chemotaxis experiments, the PMNs were incubated with the compounds of the invention of formula (I) for 15′ at 37° C. in an atmosphere containing 5% CO2. During the chemotaxis assay (W. Falket et al., J. Immunol. Methods, 33, 239, 1980) PVP-free filters with a porosity of 5 μm and microchambers suitable for replication were used.
(§3) The compounds of the invention in formula (I) were evaluated at a concentration ranging between 10^−6 and 10^−10 M; for this purpose they were added, at the same concentration, both to the lower pores and the upper pores of the microchamber. Evaluation of the ability of the compounds of the invention of formula (I) to inhibit the chemotaxis of human monocytes was carried out according to a disclosed method (J. Van Damme et al., Eur. J. Immunol., 19, 2367, 1989).

[2] = tested on: CXCL8 induced chemotaxis of PMNs; assay: CXCL8 induced chemotaxis of human PMNs; assay type: cell-based; conditions: CXCL8 10^−9 M; for inhibition at 0.001 µM / inhibition at 0.01 µM: Homo sapiens; for inhibition at 0.001 µM / CXCL8 (% inhibition at 10^−9 M): compound at 10^−9 M; for inhibition at 0.01 µM: read-out: CXCL8 (% inhibition), tested at 10^−8 M
Method: as §1
In the CXCL8 induced chemotaxis assay human recombinant CXCL8 (Pepro Tech) was used as stimulating agent in the chemotaxis experiments: the lyophilized protein was dissolved in a volume of HBSS containing 0.2% bovin serum albumin (BSA) in order to obtain a stock solution having a concentration of 10^−5 M to be diluted in HBSS to a concentration of 10^−9 M, for the chemotaxis assays.
as §2, §3

[3] = tested on: transient cerebral ischemia induced by occlusion of the middle cerebral artery; assay: Transient cerebral ischemia by middle cerebral artery (MCA) occlusion in rats; assay type: in vivo; conditions: short-term effect (24 hours)
Method: The compounds of the present invention are particularly useful in the prevention and treatment of damages caused by ischemia/reperfusion, specifically in the protection from the functional injury induced by temporary cerebral middle cerebral artery (MCA) occlusion. Specifically, compound 3a was evaluated in terms of efficacy in a model of transient cerebral ischemia induced in rats by occlusion of the middle cerebral artery (MCA). The short-term effect (24 hours) of 3a on cerebral myeloperoxidase (MPO) activity, a marker of PMN infiltration, brain damage and neurological deficits, was investigated.

[4] = compound at 10^−8 M (footnote *)

SMILES	inhibition at 0.01 µM [1] [%]	inhibition at 0.001 µM [2] [%]	also measured
C[C@H](C(N)=O)c1ccc(Nc2nc(C(C)(C)C)cs2)cc1 [Compound 15, (2S)-2-{4-[(4-tert-Butyl-1,3-thiazol-2-yl)amino]phenyl}propanamide]	45 ± 10	48 ± 8	
C[C@H](C(=O)O)c1ccc(N(C)c2nc(C(F)(F)F)co2)cc1 [Compound 20, (2S)-2-(4-{Methyl[4-(trifluoromethyl)-1,3-oxazol-2-yl]amino}phenyl)propanoic acid]	44 ± 7	47 ± 8	
C[C@H](C(N)=O)c1ccc(Nc2nc(C(F)(F)F)co2)cc1 [Compound 22, (2S)-2-(4-{[4-(Trifluoromethyl)-1,3-oxazol-2-yl]amino}phenyl) propanamide]	49 ± 6	58 ± 5	
C[C@H](C(=O)NS(=O)(=O)C(F)(F)F)c1ccc(Nc2nc(C(F)(F)F)cs2)cc1 [Compound 12]			CXCL1 (% inhibition at 10^−8 M) [1]: 30 ± 7%; CXCL8 (% inhibition), tested at 10^−8 M [2, 4]: 48 ± 13* %
C[C@H](C(=O)[O-])c1ccc(Nc2nc(C(F)(F)F)cs2)cc1.[Na+] [Compound 3a, Sodium (2S)-2-(4-{[4-(trifluoromethyl)-1,3-thiazol-2-yl]amino}phenyl)propanoate]			CXCL1 (% inhibition at 10^−8 M) [1]: 55 ± 8%; PMN infiltrate (cerebral myeloperoxidase (MPO) activity) [3]: efficacious in reducing PMN infiltrate; infarct size (brain damage) [3]: efficacious in reducing; neurological functions (neurological deficits) [3]: improving significantly neurological functions; CXCL8 (% inhibition at 10^−9 M) [2]: 64 ± 9%
C[C@H](C(=O)N[C@H](C)C(=O)O)c1ccc(Nc2nc(C(F)(F)F)cs2)cc1 [Compound 16, (2R)-2-{[(2S)-2-(4-{[4-(Trifluoromethyl)-1,3-thiazol-2-yl]amino}phenyl)propanoyl]amino}propanoic acid]	30 ± 15	42 ± 7	
CC(C(=O)O)c1ccc(Nc2nc(C(F)(F)F)cs2)cc1 (stereo not drawn) [Compound 1, 2-(4-{[4-(Trifluoromethyl)-1,3-thiazol-2-yl]amino}phenyl)propanoic acid]	40 ± 6		inhibition at 0.01 µM [2, 4]: 43 ± 7%
C[C@H](C(=O)O)c1ccc(Nc2nc(C(F)(F)F)co2)cc1 [Compound 19, (2S)-2-(4-{[4-(Trifluoromethyl)-1,3-oxazol-2-yl]amino}phenyl)propanoic acid]	36 ± 11	44 ± 10	
C[C@H](NC(=O)[C@@H](C)c1ccc(Nc2nc(C(F)(F)F)co2)cc1)C(=O)O [Compound 24, (2S)-2-{[(2S)-2-(4-{[4-(Trifluoromethyl)-1,3-oxazol-2-yl]amino}phenyl)propanoyl]amino}propanoic acid]	34 ± 8		inhibition at 0.01 µM [2, 4]: 54 ± 12%
C[C@H](C(N)=O)c1ccc(Nc2nc(C(F)(F)F)cs2)cc1 [Compound 13]	44 ± 9	47 ± 3	melting point: 204 to 205 °C
C[C@H](C(=O)O)c1ccc(N(C)c2nc(C(F)(F)F)cs2)cc1 [Compound 9, (2S)-2-(4-{methyl[4-(trifluoromethyl)-1,3-thiazol-2-yl]amino}phenyl)propanoic acid]	40 ± 12	41 ± 7	
Cc1csc(Nc2ccc([C@H](C)C(=O)O)cc2)n1 [Compound 5, (2S)-2-{4-[(4-Methyl-1,3-thiazol-2-yl)amino]phenyl}propanoic acid]	38 ± 10	40 ± 11	
Cc1csc(Nc2ccc(C(C)C(=O)O)cc2)n1 (stereo not drawn) [Compound 4, 2-{4-[(4-Methyl-1,3-thiazol-2-yl)amino]phenyl}propanoic acid]	45 ± 10		inhibition at 0.01 µM [2, 4]: 46 ± 6%
CC(C(=O)O)c1ccc(Nc2nc(C(C)(C)C)cs2)cc1 (stereo not drawn) [Compound 6, 2-{4-[(4-tert-Butyl-1,3-thiazol-2-yl)amino]phenyl}propanoic acid]	36 ± 10		inhibition at 0.01 µM [2, 4]: 55 ± 10%
C[C@H](C(N)=O)c1ccc(N(C)c2nc(C(F)(F)F)cs2)cc1 [Compound 14, (2S)-2-(4-{Methyl[4-(trifluoromethyl)-1,3-thiazol-2-yl]amino}phenyl)propanamide]	34 ± 13	45 ± 14	
C[C@H](NC(=O)[C@@H](C)c1ccc(Nc2nc(C(F)(F)F)co2)cc1)C(N)=O [Compound 25, (2S)—N-[(1S)-2-Amino-1-methyl-2-oxoethyl]-2-(4-{[4-(trifluoromethyl)-1,3-oxazol-2-yl]amino}phenyl) propanamide]	39 ± 14	46 ± 12	
C[C@H](C(=O)O)c1ccc(Nc2nc(C(C)(C)C)cs2)cc1 [Compound 7, (2S)-2-{4-[(4-tert-Butyl-1,3-thiazol-2-yl)amino]phenyl}propanoic acid]	45 ± 10	50 ± 8	
C[C@H](C(N)=O)c1ccc(N(C)c2nc(C(F)(F)F)co2)cc1 [Compound 23, (2S)-2-(4-{Methyl-[4-(trifluoromethyl)-1,3-oxazol-2-yl]amino}phenyl)propanamide]	39 ± 2	45 ± 13	
C[C@H](C(=O)NS(C)(=O)=O)c1ccc(Nc2nc(C(F)(F)F)cs2)cc1 [Compound 11, (2S)—N-(Methylsulfonyl)-2-(4-{[4-(trifluoromethyl)-1,3-thiazol-2yl]amino}phenyl) propanamide]	39 ± 7	54 ± 16	
C[C@H](C(=O)NO)c1ccc(Nc2nc(C(F)(F)F)cs2)cc1 [Compound 10, (2S)—N-Hydroxy-2-(4-{[4-(trifluoromethyl)-1,3-thiazol-2-yl]amino}phenyl) propanamide]	47 ± 12	51 ± 10	
CC(C(=O)O)c1ccc(Nc2nc(C(F)(F)F)co2)cc1 (stereo not drawn) [Compound 18, 2-{4-[(4-Trifluoromethyl)-oxazol-2-yl]amino}phenyl propionic]	60 ± 9		inhibition at 0.01 µM [2, 4]: 47 ± 12%
C[C@H](C(=O)NS(C)(=O)=O)c1ccc(Nc2nc(C(F)(F)F)co2)cc1 [Compound 21, (2S)—N-(Methylsulfonyl)-2-(4-{[4-(trifluoromethyl)-1,3-oxazol-2-yl]amino}phenyl) propanamide]			CXCL1 (% inhibition at 10^−8 M) [1]: 37 ± 2%; CXCL8 (% inhibition at 10^−9 M) [2]: 43 ± 6%
CC(C(=O)O)c1ccc(N(C)c2nc(C(F)(F)F)cs2)cc1 (stereo not drawn) [Compound 8, 2-(4-{Methyl[4-(trifluoromethyl)-1,3-thiazol-2-yl]amino}phenyl)propanoic acid]	39 ± 10		inhibition at 0.01 µM [2, 4]: 45 ± 5%
CC(C)[C@H](NC(=O)[C@@H](C)c1ccc(Nc2nc(C(F)(F)F)cs2)cc1)C(=O)O [Compound 17, (2S)-3-Methyl-2-{[(2S)-2-(4-{[4-(trifluoromethyl)-1,3-thiazol-2-yl]amino}phenyl)propanoyl]amino}butanoic acid]	40 ± 12	39 ± 2	melting point: 99 to 101 °C
C[C@H](C(=O)O)c1ccc(Nc2nc(C(F)(F)F)cs2)cc1 [Compound 3, (2S)-2-(4-{[4-(Trifluoromethyl)-1,3-thiazol-2-yl]amino}phenyl)propanoic acid]	58 ± 6	66 ± 11	
CC(C)(C(=O)O)c1ccc(Nc2nc(C(F)(F)F)cs2)cc1 [Compound 2, 2-Methyl-2-(4-{[4-(trifluoromethyl)-1,3-thiazol-2-yl]amino}phenyl)propanoic acid]	42 ± 9	56 ± 10	
